Results published in US20230225984A1, “MONO- AND BIS-NITROSYLATED ALKYL POLYOLS FOR THERAPEUTIC USE” (priority 2020, published 2023).

Assay: Stability of non-aqueous mixtures of 1-(nitrosooxy)-propan-2-ol and 2-(nitrosooxy)-propan-1-ol in 1,2-propanediol, GC analysis
Assay type: physicochemical
Experimental: Three different concentrations of 1-(nitrosooxy)-propan-2-ol and 2-(nitrosooxy)-propan-1-ol in 1,2-propanediol were prepared and stored in both a refrigerator (5° C.) and freezer (−20° C.). Aliquots of each solution were taken periodically and analysed by GC to determine the concentration of 1-(nitrosooxy)-propan-2-ol and 2-(nitrosooxy)-propan-1-ol.
The results of the GC analysis are shown in the table below (column: Rxi-5Sil MS, 20 m×0.18 mm, […]; carrier: He; Inlet: 250° C., split ratio 100:1; constant flow: 1.0 mL/min; oven temperature profile: 40° C. (3 min), 10° C./min, 80° C. (0 min), 30° C./min, 250° C. (3 min); FID: 300° C., H2 flow 30 mL/min, air flow 400 mL/min, make-up flow (N2) 25 mL/min; internal standard: 1,1,1,3,5,5,5-heptamethyl trisiloxane): […]

[1] = Freezer (−20° C.), 10 days, Low conc. sample in 1,2-propanediol
[2] = Freezer (−20° C.), 10 days, Medium conc. sample in 1,2-propanediol
[3] = Freezer (−20° C.), 14 days, High conc. sample in 1,2-propanediol
[4] = Freezer (−20° C.), 27 days, Low conc. sample in 1,2-propanediol
[5] = Freezer (−20° C.), 27 days, Medium conc. sample in 1,2-propanediol
[6] = Freezer (−20° C.), 28 days, High conc. sample in 1,2-propanediol
[7] = Freezer (−20° C.), 56 days, High conc. sample in 1,2-propanediol
[8] = Freezer (−20° C.), 64 days, Low conc. sample in 1,2-propanediol
[9] = Freezer (−20° C.), 64 days, Medium conc. sample in 1,2-propanediol
[10] = Freezer (−20° C.), 84 days, High conc. sample in 1,2-propanediol
[11] = Freezer (−20° C.), 84 days, Low conc. sample in 1,2-propanediol
[12] = Freezer (−20° C.), 84 days, Medium conc. sample in 1,2-propanediol
[13] = Freezer (−20° C.), Start, High conc. sample in 1,2-propanediol
[14] = Freezer (−20° C.), Start, Low conc. sample in 1,2-propanediol
[15] = Freezer (−20° C.), Start, Medium conc. sample in 1,2-propanediol
[16] = Refrigerator (5° C.), 10 days, Low conc. sample in 1,2-propanediol
[17] = Refrigerator (5° C.), 10 days, Medium conc. sample in 1,2-propanediol
[18] = Refrigerator (5° C.), 14 days, High conc. sample in 1,2-propanediol
[19] = Refrigerator (5° C.), 27 days, Low conc. sample in 1,2-propanediol
[20] = Refrigerator (5° C.), 27 days, Medium conc. sample in 1,2-propanediol
[21] = Refrigerator (5° C.), 28 days, High conc. sample in 1,2-propanediol
[22] = Refrigerator (5° C.), 56 days, High conc. sample in 1,2-propanediol
[23] = Refrigerator (5° C.), 64 days, Low conc. sample in 1,2-propanediol
[24] = Refrigerator (5° C.), 64 days, Medium conc. sample in 1,2-propanediol
[25] = Refrigerator (5° C.), 84 days, High conc. sample in 1,2-propanediol
[26] = Refrigerator (5° C.), 84 days, Low conc. sample in 1,2-propanediol
[27] = Refrigerator (5° C.), 84 days, Medium conc. sample in 1,2-propanediol
[28] = Refrigerator (5° C.), Start, High conc. sample in 1,2-propanediol
[29] = Refrigerator (5° C.), Start, Low conc. sample in 1,2-propanediol
[30] = Refrigerator (5° C.), Start, Medium conc. sample in 1,2-propanediol

SMILES | Concentration (% w/w) [1] [% w/w] | Concentration (% w/w) [2] [% w/w] | Concentration (% w/w) [3] [% w/w] | Concentration (% w/w) [4] [% w/w] | Concentration (% w/w) [5] [% w/w] | Concentration (% w/w) [6] [% w/w] | Concentration (% w/w) [7] [% w/w] | Concentration (% w/w) [8] [% w/w] | Concentration (% w/w) [9] [% w/w] | Concentration (% w/w) [10] [% w/w] | Concentration (% w/w) [11] [% w/w] | Concentration (% w/w) [12] [% w/w] | Concentration (% w/w) [13] [% w/w] | Concentration (% w/w) [14] [% w/w] | Concentration (% w/w) [15] [% w/w] | Concentration (% w/w) [16] [% w/w] | Concentration (% w/w) [17] [% w/w] | Concentration (% w/w) [18] [% w/w] | Concentration (% w/w) [19] [% w/w] | Concentration (% w/w) [20] [% w/w] | further results
CC(O)CON=O (stereo not drawn) [1-Nitrite, 1-(nitrosooxy)-propan-2-ol] | 0.08 | 0.81 | 3.76 | 0.07 | 0.74 | 3.72 | 3.55 | 0.07 | 0.74 | 3.50 | 0.08 | 0.78 | 3.75 | 0.08 | 0.81 | 0.08 | 0.86 | 3.72 | 0.09 | 0.81 | Concentration (% w/w) [21]: 3.67 % w/w; Concentration (% w/w) [22]: 3.47 % w/w; Concentration (% w/w) [23]: 0.07 % w/w; Concentration (% w/w) [24]: 0.73 % w/w; Concentration (% w/w) [25]: 3.33 % w/w; Concentration (% w/w) [26]: 0.07 % w/w; Concentration (% w/w) [27]: 0.77 % w/w; Concentration (% w/w) [28]: 3.75 % w/w; Concentration (% w/w) [29]: 0.08 % w/w; Concentration (% w/w) [30]: 0.81 % w/w
CC(CO)ON=O (stereo not drawn) [2-Nitrite, 2-(nitrosooxy)-propan-1-ol] | 0.06 | 0.63 | 2.89 | 0.06 | 0.57 | 2.93 | 2.74 | 0.06 | 0.58 | 2.71 | 0.06 | 0.62 | 2.94 | 0.06 | 0.61 | 0.06 | 0.67 | 2.91 | 0.07 | 0.63 | Concentration (% w/w) [21]: 2.90 % w/w; Concentration (% w/w) [22]: 2.69 % w/w; Concentration (% w/w) [23]: 0.06 % w/w; Concentration (% w/w) [24]: 0.57 % w/w; Concentration (% w/w) [25]: 2.59 % w/w; Concentration (% w/w) [26]: 0.06 % w/w; Concentration (% w/w) [27]: 0.60 % w/w; Concentration (% w/w) [28]: 2.94 % w/w; Concentration (% w/w) [29]: 0.06 % w/w; Concentration (% w/w) [30]: 0.61 % w/w
